Data as given in patent US10676461B2, “Heterocyclic compound” (TAKEDA PHARMACEUTICAL COMPANY LIMITED, priority 2016, dated 2020).

Tested on: sphingomyelin in the cerebral cortex
Test: Efficacy evaluation test using sphingomyelin accumulation model mouse (Niemann-Pick disease type A and type B model)
Type: in vivo, mouse (C57BL/6J Jcl)
Details: for Amount of sphingomyelin per wet weight of cerebral cortex: twice daily, 2 wk, imipramine hydrochloride 40 mg/kg i.p. once daily, 4 wk, male mouse, Mean ± S.D., N = 7-8
Description: Test Example 4 Efficacy Evaluation Test Using Sphingomyelin Accumulation Model Mouse as Niemann-Pick Disease Type A and Type B Model
A phase 1b clinical trial on Niemann-Pick disease type B which develops by abnormality in acid sphingomyelinase has reported that the administration of recombinant acid sphingomyelinase (olipudase alfa) decreased sphingomyelin accumulated in a peripheral organ such as the liver, and this led to the amelioration of the pathological condition (Am J Surg Pathol. 2016; 40: 1232).
Also, the intraperitoneal administration of an acid sphingomyelinase inhibitor, imipramine hydrochloride, to a mouse increases its enzyme substrate, sphingomyelin, not only in a peripheral organ such as the liver but in the central nervous system such as the cerebrum, and the mouse obtained by such administration is recognized as an animal model that can induce sphingomyelin accumulation, as in human Niemann-Pick disease type A and type B, in each tissue (Gen Physiol Biophys 2016; 35: 195).
Accordingly, the compound of the present invention was evaluated as a SPT inhibitor for its sphingomyelin-lowering effect on Niemann-Pick disease type B, and Niemann-Pick disease type A, which also accumulates sphingomyelin in the central nervous system such as the cerebral cortex, by the following method. Imipramine hydrochloride (Wako Pure Chemical Industries, Ltd.) was dissolved at a concentration of 2 mg/mL in saline and intraperitoneally administered at a dose of 40 mg/kg to each 6-week-old male C57BL/6J Jcl mouse (CLEA Japan, Inc.) for 2 weeks once daily. […] In this operation, the intraperitoneal administration of imipramine hydrochloride was also carried out once daily concurrently therewith. After the completion of the administration of the SPT inhibitor, the cerebrum was excised from the mouse cranium and separated into the cortex and the medulla. The cortical portion was rapidly frozen in liquid nitrogen and then disrupted using ShakeMaster Auto (Bio-Medical Science Co., Ltd.) under freezing. 2-Propanol (containing 0.002% of BHT (dibutylhydroxytoluene as a fat and oil antioxidant) was added thereto in an amount of 9 mL/g of wet weight, and lipids in the cerebral cortex were extracted by suspension using ShakeMaster Auto again. The concentration of sphingomyelin contained in the 2-propanol was measured using a sphingomyelin assay kit (Abcam, Inc., ab138877) based on the fluorescence quantification method. EnVision 2102 Multilabel Reader (PerkinElmer Inc.) was used in fluorescence measurement.
From this, it was able to be confirmed that a model mimicking Niemann-Pick disease type A and type B which accumulate sphingomyelin in the cerebral cortex was established by the intraperitoneal administration of imipramine hydrochloride for 4 weeks.

Question: How did the “Amount of sphingomyelin per wet weight of cerebral cortex” value (group 3: 0.3 mg/kg oral) turn out when Cn1nc(C(=O)N[C@@H]2CCN(C(=O)c3cc(Cl)c4nccnc4c3)C[C@@H]2c2ccc(F)cc2)cc1C(F)(F)F [Example 1, N-((3S,4R)-1-((8-Chloroquinoxalin-6-yl)carbonyl)-3-(4-fluorophenyl)piperidin-4-yl)-1-methyl-5-(trifluoromethyl)-1H-pyrazole-3-carboxamide] was run?
Answer: 3.282 ± 0.260 µg/g

Question: What about the “Amount of sphingomyelin per wet weight of cerebral cortex” value (group 4: 1.0 mg/kg oral) of the same molecule?
Answer: 2.972 ± 0.635 µg/g

Question: And the “Amount of sphingomyelin per wet weight of cerebral cortex” value (group 5: 3.0 mg/kg oral)?
Answer: 2.952 ± 0.219 µg/g

Question: What about the “effect of suppressing sphingomyelin accumulation in the cerebral cortex” value (oral, 2 weeks twice daily, single dose 0.3, 1.0 and 3.0 mg/kg, imipramine model mouse, p<0.025, one-tailed Williams' test) of the same molecule?
Answer: dose-dependent significant effect of suppressing sphingomyelin accumulation in the cerebral cortex
